Test results reported in patent publication US10130598B2, “Methods and compositions for administration of 3-halopyruvate and related compounds for the treatment of cancer” (The Johns Hopkins University, priority 2008, dated 2018).
Read-outs that look alike come from different tables or passages of the source.

What was measured:
[1] = tested on: Human PANC-10 pancreatic cancer cells; test: Orthotopic xenograft pancreatic cancer model, oral 3-BrPA; type: in vivo, NOD/SCID mice; conditions: for Tumor size at day 50: NaHCO3-buffered, oral
Method: The efficacy of orally administered 3-BrPA in the treatment of pancreatic cancer was tested using an orthotopic xenograft pancreatic cancer model. Human PANC-10 pancreatic cancer cells were implanted into the pancreas of NOD/SCID mice and allowed to form 4-5 mm^3 sized tumors. Following the establishment of the tumors, tumor-bearing mice were orally administered 250 μl of a NaHCO3-buffered solution containing varying concentrations of 3-BrPA once per day. After 50 days of treatment, the tumor-bearing mice were sacrificed and tumor growth and cancer cell proliferation was analyzed.

[2] = Effect of 3-BrPA concentration on tolerability of oral administration; type: in vivo, nude mice; conditions: for Time to death (all mice died): oral
Method: To determine the effect of compound concentration on the tolerable dose of 3-BrPA, a series of experiments were performed in nude mice to determine how a change in administered volume, and therefore a change 3-BrPA concentration, would influence compound efficacy and animal survival. For these experiments, 3-BrPa was administered at a dose of 200 mg/kg and a pH of 4.
All mice in group 1 and 2 (n=3 per group) died within 24 hours after receiving 5 mg of 3-BrPA in volumes of […], respectively.

MCF7 cells [3] = test: Luminescence ATP assay, MCF7; type: cell-based
Method: (§1) Cytotoxicity of 3-BrPA was evaluated by the IC50 values, representing the drug concentration which depletes ATP by 50% compared to non-treated control. On day 1, cells were seeded into 96-well plates in a volume of 100 μl per well. On day 2, the medium of all wells was removed and an aliquot of 100 μl of media having serial dilutions of 3-BrPA in PBS, NaHCO3, NaOH, KOH and KHCO3 was added to the appropriate well. After 24 h of drug exposure cytotoxic effects of 3-BrPA were monitored by cellular ATP level using CellTiter-Glo™ assay reagents from Promega Corp (Madison, Wis.). Briefly, 100 μl assay reagent was added to each well and mixed at room temperature for 2 min to develop luminescent signal. The luminescence intensity (cps) from each sample was determined with a spectrometer (Model Victor III, Perkin Elmer, Mass.). Relative luminescence was calculated in proportion to the numbers of living cells per sample well. The results are expressed as the mean of three independent experiments. The intracellular ATP contents were calculated and normalized by equal cell number and expressed as the percentage of the control cells. The IC50 values were estimated graphically from dose-response plots.
The anti-metabolic effect of 3-BrPA on MCF7 and MDA MB231 cells was examined using luminescence ATP assays, as described above. […]

MCF7 cells [4] = test: Trypan blue viability assay, MCF7; type: cell-based
From the text: (§2) The non-small cell lung cancer (NSCLC) cell line NCI-H1299, the breast cancer cell lines MCF7 and MDA MB 231 and the Hep3B, Hep2G and SK-Hep1 cells were obtained from the American Type Culture Collection (ATCC) (Manassas, Va., USA) and maintained as a monolayer culture in Eagle's minimum essential medium (MEM, Invitrogen, Gaithersburg, Md., USA) supplemented with 10% fetal bovine serum at 37 C and 5% CO2. All treatments were done in triplicate samples on 96-well plates. VX2 cells were maintained as described in Geschwind et al., Cancer Res., 62:3909-3913 (2002).
The efficacy of 3-BrPA in the treatment of breast cancer cells was tested using the cancer cell lines MCF7 and MDA MB 231. As described above, the cell lines were grown as monolayers in MEM (Invitrogen) supplemented with 10% fetal bovine serum (HyClone) at 37 C.° and 5% CO2, and all treatments were done in triplicate samples on 96-well plates.
The EC50 of 3-BrPA for MCF7 cells lies between 0.05 and 0.06 mM. […] Therefore, considering that oral administration of 3-BrPA buffered in NaHCO3 is effective in prolonging survival in liver cancer models (Example 2), it is probable that oral administration of 3-BrPA buffered in NaHCO3 would also be effective in the treatment of breast cancer.

Vx-2 cell line = test: ATP dependent luminescence cell viability assay, VX2; type: cell-based; conditions: for IC50: Vx-2, read-out: IC50 (ATP depletion)
From the text: as §2
as §1, with “After 24 h of drug exposure cytotoxic effects of 3-BrPA were monitored by cellular ATP level using CellTiter-Glo™ assay reagents from Promega Corp (Madison, Wis.).” left out
The efficacy of 3-BrPA in the treatment of liver cancer cells was further tested using the cancer cell lines Hep3B, HepG2, SK-Hep1 and VX2. […]
The effects on cell viability and cellular metabolism of 3-BrPA on Hep3B and VX2 cells were examined using luminescence ATP assays, as described above. […]

In the case of O=C(O)C(=O)CBr [3-BrPA, 3-bromopyruvate], the “Tumor size at day 50” value ([1]; daily dose of 50 mg/kg) is reported as 12-14 mm^3, the “Tumor size at day 50” value ([1]; daily dose of 100 mg/kg) is reported as 7-8 mm^3 and the “Tumor size at day 50” value ([1]; daily dose of 150 mg/kg) is reported as 4-6 mm^3. For the same compound, the “Tumor size at day 50” value ([1]; daily dose of 200 mg/kg) was 3-5 mm^3, the Local metastases ([1]; daily dose of 50 mg/kg) was “lacked any signs of local metastases” and the Mitotic index ([1]; daily dose of 50 mg/kg) was 9-10 mitotic cells per field. The Local metastases ([1]; daily dose of 100 mg/kg) was “lacked any signs of local metastases”, the Mitotic index ([1]; daily dose of 100 mg/kg) was 7 mitotic cells per field and the Local metastases ([1]; daily dose of 150 mg/kg) was “lacked any signs of local metastases”. For the same compound, the Mitotic index ([1]; daily dose of 150 mg/kg) was 2-4 mitotic cells per field, the Local metastases ([1]; daily dose of 200 mg/kg) was “lacked any signs of local metastases” and the Mitotic index ([1]; daily dose of 200 mg/kg) was 1-2 mitotic cells per field. For the same compound, the Tumor growth ([1]; daily dose of 200 mg/kg, day 50) was “no signs of growth”, the “Time to death (all mice died)” value ([2]; group 1: 5 mg (200 mg/kg, pH 4) in a volume of 50 ml) was ≤ 24 h and the “Time to death (all mice died)” value ([2]; group 2: 5 mg (200 mg/kg, pH 4) in a volume of 100 ml) was ≤ 24 h. The “Tolerability of daily oral administration” value (shortened to “Tolerability”) ([2]; group 3: 200 mg/kg, pH 4, volume of 150 ml) was “did not show any signs of discomfort”, the “Tolerability” value ([2]; group 4: 200 mg/kg, pH 4, volume of 200 ml) was “did not show any signs of discomfort” and the “Tolerability” value ([2]; group 5: 200 mg/kg, pH 4, volume of 300 ml) was “did not show any signs of discomfort”. For the same compound, the “ATP level (bioluminescent quantification)” value (MCF7 cells [3]) was “dose and time dependent energy (ATP) depletion”, the Cells died (MCF7 cells [4]; 0.05 mM, within 3 hours) was “more than 40%” and the Cell death (MCF7 cells [4]; 0.15 mM) was 100%. The “EC50 compared with EC50 of 3-BrPA for VX2 liver cancer cells” value (MCF7 cells [4]; MCF7) was “lower”, the “Viability (trypan blue)” value (MCF7 cells [4]; MCF7) was “dose and time dependent decrease in viability” and the “Level of ATP” value (Vx-2 cell line; VX2, 3, 24, 48 hours) was “dose and time dependent decrease”. For the same compound, the IC50 (Vx-2 cell line; at 48 hours) was 50 µM and the IC50 (Vx-2 cell line; treatment time not given) was 60 µM.
